Experimental data taken from patent EP4105215A1, “CO-CRYSTAL OF APIXABAN WITH A CARBOXYLIC ACID” (University of Limerick, priority 2021, dated 2022).

Legend:
[1] = single 10 mg dose; cited from earlier work
[2] = Dissolution / solubility in PBS 6.8 analysed by HPLC; format: physicochemical; conditions: PBS 6.8 at 37°C, triplicate
Protocol: 25 mg equivalent of APX was sieved to 75-100µm using standard-mesh sieve and the resulting slurry was added to 500 mL phosphate buffer solution (PBS) 6.8 at 37°C stirring at 100 rpm. 1mL aliquots were taken at 1 3, 5, 10, 15, 30, 60, 120, 240, 480, 720 and 1440 minutes. Each aliquot filtered through a 0.45 µm Whattmann syringe filter. 500 µL of filtered aliquot and 500 µL of methanol were pipetted into a vial and injected to HPLC. All dissolution experiments for APX and cocrystals were carried in triplicates.
The dissolution aliquots were analysed using a Shimadzu (LC-20A) HPLC instrument with a Gemini® C18 (250 x 4.6 x 5 µm) column. The wavelength was set to 235nm with an injection volume of 10 µL and a flow rate of 1 mL/min with the oven set at 40°C.
Physicochemical properties such as PBS 6.8 solubility were analysed by high performance liquid chromatography (HPLC). […] Table 4: Solubility of APX and respective cocrystals in PBS 6.8 at 37°C

SMILES: COc1ccc(-n2nc(C(N)=O)c3c2C(=O)N(c2ccc(N4CCCCC4=O)cc2)CC3)cc1 [APX, 1-(4-methoxyphenyl)-7-oxo-6-(4-(2-oxopiperidin-1-yl)phenyl)-4,5,6,7-tetrahydro-1H-pyrazolo[3,4-c]pyridine-3-carboxamide]
- oral bioavailability [1]: about 50%
- Acute, T= 60 mins Conc ([2]; 60 mins): 0.0241 mg/mL
- Chronic, T= 720mins Conc ([2]; 720 mins): 0.0303 mg/mL
